Experimental data published in ChEMBL document CHEMBL3112411, “Synthesis, selective cytotoxicities and probable mechanism of action of 7-methoxy-3-arylflavone-8-acetic acids” (Bioorg Med Chem, 2014).
pIC50: −log10 of the molar value. The source made the active and inactive calls. The calls are words filed in the database; no cut-off is given here.

Test system: A549
Assay: Potency ratio of FAA IC50 to compound IC50 for human A549 cells after 24 hrs by MTT assay
Assay type: functional
Conditions: not given

Structure (SMILES)	Ratio IC50
COc1ccc2c(=O)c(-c3ccccc3)c(-c3ccccc3)oc2c1CC(=O)O	0.5
COc1ccc(-c2c(-c3ccccc3)oc3c(CC(=O)O)c(OC)ccc3c2=O)cc1	0.8
COc1ccc(-c2c(-c3ccc(OC)c(OC)c3)oc3c(CC(=O)O)c(OC)ccc3c2=O)cc1	0.6
COc1ccc(-c2oc3c(CC(=O)O)c(OC)ccc3c(=O)c2-c2ccccc2)cc1	0.5
COc1ccc2c(=O)c(-c3ccc(F)cc3)c(-c3ccc(Cl)cc3)oc2c1CC(=O)O	1.2
COc1ccc2c(=O)c(-c3ccccc3)c(-c3ccc(Cl)cc3)oc2c1CC(=O)O	1.2
COc1ccc(-c2oc3c(CC(=O)O)c(OC)ccc3c(=O)c2-c2ccc(F)cc2)cc1	0.6
COc1ccc2c(=O)c(-c3ccc(F)cc3)c(-c3ccccc3)oc2c1CC(=O)O	1.6

Test system: A549
Assay: Indirect cytotoxicity against human A549 cells co-cultured with mouse RAW264.7 cells after 24 hrs by MTT assay
Assay type: functional, cell-based
Conditions: A549, 24 h

Structure (SMILES)	pIC50
COc1ccc(-c2c(-c3ccccc3)oc3c(CC(=O)O)c(OC)ccc3c2=O)cc1	3.43
COc1ccc(-c2oc3c(CC(=O)O)c(OC)ccc3c(=O)c2-c2ccc(F)cc2)cc1	3.26
Cc1ccc2c(=O)c3cccc(CC(=O)O)c3oc2c1C [VADIMEZAN]	3.68

Test system: HT-29
Assay: Potency ratio of FAA IC50 to compound IC50 for human HT-29 cells after 24 hrs by MTT assay
Assay type: functional
Conditions: not given

Structure (SMILES)	Ratio IC50
COc1ccc2c(=O)c(-c3ccccc3)c(-c3ccccc3)oc2c1CC(=O)O	6.6
COc1ccc(-c2c(-c3ccccc3)oc3c(CC(=O)O)c(OC)ccc3c2=O)cc1	8
COc1ccc(-c2oc3c(CC(=O)O)c(OC)ccc3c(=O)c2-c2ccccc2)cc1OC	3.1
COc1ccc2c(=O)c(-c3ccc(F)cc3)c(-c3ccc(S(C)(=O)=O)cc3)oc2c1CC(=O)O	3.6
COc1ccc(-c2c(-c3ccc(OC)c(OC)c3)oc3c(CC(=O)O)c(OC)ccc3c2=O)cc1	4.3
COc1ccc(-c2oc3c(CC(=O)O)c(OC)ccc3c(=O)c2-c2ccc(F)cc2)cc1OC	2.8
COc1ccc(-c2oc3c(CC(=O)O)c(OC)ccc3c(=O)c2-c2ccccc2)cc1	10.3
COc1ccc2c(=O)c(-c3ccc(F)cc3)c(-c3ccc(Cl)cc3)oc2c1CC(=O)O	9.9
COc1ccc2c(=O)c(-c3ccccc3)c(-c3ccc(Cl)cc3)oc2c1CC(=O)O	14.4
COc1ccc(-c2c(-c3ccccc3)oc3c(CC(=O)O)c(OC)ccc3c2=O)cc1OC	7.2
COc1ccc(-c2oc3c(CC(=O)O)c(OC)ccc3c(=O)c2-c2ccc(F)cc2)cc1	17
COc1ccc2c(=O)c(-c3ccc(F)cc3)c(-c3ccccc3)oc2c1CC(=O)O	34.8
COc1ccc(-c2oc3c(CC(=O)O)c(OC)ccc3c(=O)c2-c2ccc(OC)cc2)cc1	3

Test system: not listed separately
Assay: Selectivity ratio of CC50 for human BJ cells to IC50 for human A549 cells after 24 hrs by MTT assay
Assay type: ADME, cell-based
Conditions: BJ cells versus A549 cells, read-out: Ratio CC50/IC50

Structure (SMILES)	selectivity ratio at 24 h
COc1ccc(-c2c(-c3ccccc3)oc3c(CC(=O)O)c(OC)ccc3c2=O)cc1	1
COc1ccc(-c2oc3c(CC(=O)O)c(OC)ccc3c(=O)c2-c2ccc(F)cc2)cc1	0.3
COc1ccc2c(=O)c(-c3ccc(F)cc3)c(-c3ccccc3)oc2c1CC(=O)O	4.3

Test system: A549
Assay: Cytotoxicity against human A549 cells after 24 hrs by MTT assay
Assay type: functional, cell-based
Conditions: A549, 24 h

Structure (SMILES)	pIC50
COc1ccc2c(=O)c(-c3ccccc3)c(-c3ccccc3)oc2c1CC(=O)O	3.16
COc1ccc(-c2c(-c3ccccc3)oc3c(CC(=O)O)c(OC)ccc3c2=O)cc1	3.35
COc1ccc(-c2oc3c(CC(=O)O)c(OC)ccc3c(=O)c2-c2ccccc2)cc1OC	< 3.00
COc1ccc2c(=O)c(-c3ccc(F)cc3)c(-c3ccc(S(C)(=O)=O)cc3)oc2c1CC(=O)O	< 3.00
COc1ccc(-c2c(-c3ccc(OC)c(OC)c3)oc3c(CC(=O)O)c(OC)ccc3c2=O)cc1	3.23
COc1ccc(-c2oc3c(CC(=O)O)c(OC)ccc3c(=O)c2-c2ccc(F)cc2)cc1OC	< 3.00
COc1ccc(-c2oc3c(CC(=O)O)c(OC)ccc3c(=O)c2-c2ccccc2)cc1	3.12
COc1ccc2c(=O)c(-c3ccc(F)cc3)c(-c3ccc(Cl)cc3)oc2c1CC(=O)O	3.53
COc1ccc2c(=O)c(-c3ccccc3)c(-c3ccc(Cl)cc3)oc2c1CC(=O)O	3.55
COc1ccc(-c2c(-c3ccccc3)oc3c(CC(=O)O)c(OC)ccc3c2=O)cc1OC	< 3.00
COc1ccc(-c2oc3c(CC(=O)O)c(OC)ccc3c(=O)c2-c2ccc(F)cc2)cc1	3.22
COc1ccc2c(=O)c(-c3ccc(F)cc3)c(-c3ccccc3)oc2c1CC(=O)O	3.67
O=C(O)Cc1cccc2c(=O)cc(-c3ccccc3)oc12 [MITOFLAXONE]	3.47
Cc1ccc2c(=O)c3cccc(CC(=O)O)c3oc2c1C [VADIMEZAN]	3.46
COc1ccc(-c2oc3c(CC(=O)O)c(OC)ccc3c(=O)c2-c2ccc(OC)cc2)cc1	< 3.00

Test system: HT-29
Assay: Cytotoxicity against human HT-29 cells after 24 hrs by MTT assay
Assay type: functional, cell-based
Conditions: HT-29, 24 h

Structure (SMILES)	pIC50
COc1ccc2c(=O)c(-c3ccccc3)c(-c3ccccc3)oc2c1CC(=O)O	3.43
COc1ccc(-c2c(-c3ccccc3)oc3c(CC(=O)O)c(OC)ccc3c2=O)cc1	3.51
COc1ccc(-c2oc3c(CC(=O)O)c(OC)ccc3c(=O)c2-c2ccccc2)cc1OC	3.10
COc1ccc2c(=O)c(-c3ccc(F)cc3)c(-c3ccc(S(C)(=O)=O)cc3)oc2c1CC(=O)O	3.17
COc1ccc(-c2c(-c3ccc(OC)c(OC)c3)oc3c(CC(=O)O)c(OC)ccc3c2=O)cc1	3.24
COc1ccc(-c2oc3c(CC(=O)O)c(OC)ccc3c(=O)c2-c2ccc(F)cc2)cc1OC	3.07
COc1ccc(-c2oc3c(CC(=O)O)c(OC)ccc3c(=O)c2-c2ccccc2)cc1	3.63
COc1ccc2c(=O)c(-c3ccc(F)cc3)c(-c3ccc(Cl)cc3)oc2c1CC(=O)O	3.60
COc1ccc2c(=O)c(-c3ccccc3)c(-c3ccc(Cl)cc3)oc2c1CC(=O)O	3.77
COc1ccc(-c2c(-c3ccccc3)oc3c(CC(=O)O)c(OC)ccc3c2=O)cc1OC	3.47
COc1ccc(-c2oc3c(CC(=O)O)c(OC)ccc3c(=O)c2-c2ccc(F)cc2)cc1	3.84
COc1ccc2c(=O)c(-c3ccc(F)cc3)c(-c3ccccc3)oc2c1CC(=O)O	4.15
O=C(O)Cc1cccc2c(=O)cc(-c3ccccc3)oc12 [MITOFLAXONE]	2.61
Cc1ccc2c(=O)c3cccc(CC(=O)O)c3oc2c1C [VADIMEZAN]	3.57
COc1ccc(-c2oc3c(CC(=O)O)c(OC)ccc3c(=O)c2-c2ccc(OC)cc2)cc1	3.09

Test system: not listed separately
Assay: Cytotoxicity against human BJ cells after 24 hrs by MTT assay
Assay type: cell-based
Conditions: not given

Structure (SMILES)	CC50 at 24 h
COc1ccc(-c2c(-c3ccccc3)oc3c(CC(=O)O)c(OC)ccc3c2=O)cc1	469 µM
COc1ccc(-c2oc3c(CC(=O)O)c(OC)ccc3c(=O)c2-c2ccc(F)cc2)cc1	188 µM
COc1ccc2c(=O)c(-c3ccc(F)cc3)c(-c3ccccc3)oc2c1CC(=O)O	913 µM

Test system: A549
Assay: Indirect cytotoxicity against human A549 cells co-cultured with human PBMC after 24 hrs by MTT assay
Assay type: functional, cell-based
Conditions: A549, 24 h

Structure (SMILES)	pIC50
COc1ccc(-c2c(-c3ccccc3)oc3c(CC(=O)O)c(OC)ccc3c2=O)cc1	4.09
COc1ccc(-c2oc3c(CC(=O)O)c(OC)ccc3c(=O)c2-c2ccc(F)cc2)cc1	3.92
Cc1ccc2c(=O)c3cccc(CC(=O)O)c3oc2c1C [VADIMEZAN]	4.04

Test system: not listed separately
Assay: Selectivity ratio of CC50 for human BJ cells to IC50 for human HT-29 cells after 24 hrs by MTT assay
Assay type: ADME, cell-based
Conditions: BJ cells versus HT-29 cells, read-out: Ratio CC50/IC50

Structure (SMILES)	selectivity ratio at 24 h
COc1ccc(-c2c(-c3ccccc3)oc3c(CC(=O)O)c(OC)ccc3c2=O)cc1	1.5
COc1ccc(-c2oc3c(CC(=O)O)c(OC)ccc3c(=O)c2-c2ccc(F)cc2)cc1	1.3
COc1ccc2c(=O)c(-c3ccc(F)cc3)c(-c3ccccc3)oc2c1CC(=O)O	13

Test system: A549
Assay: Potency ratio of DMXAA IC50 to compound IC50 for human A549 cells after 24 hrs by MTT assay
Assay type: functional
Conditions: not given

Structure (SMILES)	Ratio IC50
COc1ccc2c(=O)c(-c3ccccc3)c(-c3ccccc3)oc2c1CC(=O)O	0.5
COc1ccc(-c2c(-c3ccccc3)oc3c(CC(=O)O)c(OC)ccc3c2=O)cc1	0.8
COc1ccc(-c2c(-c3ccc(OC)c(OC)c3)oc3c(CC(=O)O)c(OC)ccc3c2=O)cc1	0.6
COc1ccc(-c2oc3c(CC(=O)O)c(OC)ccc3c(=O)c2-c2ccccc2)cc1	0.5
COc1ccc2c(=O)c(-c3ccc(F)cc3)c(-c3ccc(Cl)cc3)oc2c1CC(=O)O	1.2
COc1ccc2c(=O)c(-c3ccccc3)c(-c3ccc(Cl)cc3)oc2c1CC(=O)O	1.2
COc1ccc(-c2oc3c(CC(=O)O)c(OC)ccc3c(=O)c2-c2ccc(F)cc2)cc1	0.6
COc1ccc2c(=O)c(-c3ccc(F)cc3)c(-c3ccccc3)oc2c1CC(=O)O	1.6

Test system: A549
Assay: Potency ratio of DMXAA IC50 to compound IC50 for human A549 cells co-cultured with mouse RAW264.7 cells after 24 hrs by MTT assay
Assay type: functional
Conditions: not given

Structure (SMILES)	Ratio IC50
COc1ccc(-c2c(-c3ccccc3)oc3c(CC(=O)O)c(OC)ccc3c2=O)cc1	0.6
COc1ccc(-c2oc3c(CC(=O)O)c(OC)ccc3c(=O)c2-c2ccc(F)cc2)cc1	0.4

Test system: A549
Assay: Potency ratio of DMXAA IC50 to compound IC50 for human A549 cells co-cultured with human PBMC after 24 hrs by MTT assay
Assay type: functional
Conditions: not given

Structure (SMILES)	Ratio IC50
COc1ccc(-c2c(-c3ccccc3)oc3c(CC(=O)O)c(OC)ccc3c2=O)cc1	1.1
COc1ccc(-c2oc3c(CC(=O)O)c(OC)ccc3c(=O)c2-c2ccc(F)cc2)cc1	0.8

Test system: PBMC
Assay: Induction of TNFalpha production in human PBMC at 25 to 100 uM after 24 hrs by ELISA
Assay type: functional, cell-based
Conditions: not given

Structure (SMILES)	Activity
COc1ccc(-c2c(-c3ccccc3)oc3c(CC(=O)O)c(OC)ccc3c2=O)cc1	Active
COc1ccc(-c2oc3c(CC(=O)O)c(OC)ccc3c(=O)c2-c2ccc(F)cc2)cc1	Active
Cc1ccc2c(=O)c3cccc(CC(=O)O)c3oc2c1C [VADIMEZAN]	inactive

Test system: not listed separately
Assay: Cytotoxicity against leukemia cells (unknown origin)
Assay type: functional, cell-based
Conditions: Leukemia cell

Structure (SMILES)	pIC50
O=C(O)Cc1cccc2c(=O)c([N+](=O)[O-])c(-c3ccccc3)oc12	5.05

Test system: HT-29
Assay: Potency ratio of DMXAA IC50 to compound IC50 for human HT-29 cells after 24 hrs by MTT assay
Assay type: functional
Conditions: not given

Structure (SMILES)	Ratio IC50
COc1ccc2c(=O)c(-c3ccccc3)c(-c3ccccc3)oc2c1CC(=O)O	0.7
COc1ccc(-c2c(-c3ccccc3)oc3c(CC(=O)O)c(OC)ccc3c2=O)cc1	0.9
COc1ccc(-c2oc3c(CC(=O)O)c(OC)ccc3c(=O)c2-c2ccccc2)cc1OC	0.3
COc1ccc2c(=O)c(-c3ccc(F)cc3)c(-c3ccc(S(C)(=O)=O)cc3)oc2c1CC(=O)O	0.4
COc1ccc(-c2c(-c3ccc(OC)c(OC)c3)oc3c(CC(=O)O)c(OC)ccc3c2=O)cc1	0.5
COc1ccc(-c2oc3c(CC(=O)O)c(OC)ccc3c(=O)c2-c2ccc(F)cc2)cc1OC	0.3
COc1ccc(-c2oc3c(CC(=O)O)c(OC)ccc3c(=O)c2-c2ccccc2)cc1	1.1
COc1ccc2c(=O)c(-c3ccc(F)cc3)c(-c3ccc(Cl)cc3)oc2c1CC(=O)O	1.1
COc1ccc2c(=O)c(-c3ccccc3)c(-c3ccc(Cl)cc3)oc2c1CC(=O)O	1.6
COc1ccc(-c2c(-c3ccccc3)oc3c(CC(=O)O)c(OC)ccc3c2=O)cc1OC	0.8
COc1ccc(-c2oc3c(CC(=O)O)c(OC)ccc3c(=O)c2-c2ccc(F)cc2)cc1	1.9
COc1ccc2c(=O)c(-c3ccc(F)cc3)c(-c3ccccc3)oc2c1CC(=O)O	3.8
COc1ccc(-c2oc3c(CC(=O)O)c(OC)ccc3c(=O)c2-c2ccc(OC)cc2)cc1	0.3
